Publication PMC5939596 (Cell chemical biology, 2016)
Non-standard residues stand in square brackets, D forms with d. *: point of attachment. ACC = NC(=O)Cc1cc(=O)oc2cc(N*)ccc12; Tic = O=C(O)[C@@H]1Cc2ccccc2CN1; AMC = Cc1cc(=O)oc2cc(N*)ccc12; Cbz = O=C(OCc1ccccc1)*

Legend:
[1] = target: T1, legumain (Homo sapiens, UniProt Q99538); assay: pH dependence of legumain activity towards P1-Asn and P1-Asp substrates; format: biochemical
T1 sequence (Q99538 18-323 limits assumed): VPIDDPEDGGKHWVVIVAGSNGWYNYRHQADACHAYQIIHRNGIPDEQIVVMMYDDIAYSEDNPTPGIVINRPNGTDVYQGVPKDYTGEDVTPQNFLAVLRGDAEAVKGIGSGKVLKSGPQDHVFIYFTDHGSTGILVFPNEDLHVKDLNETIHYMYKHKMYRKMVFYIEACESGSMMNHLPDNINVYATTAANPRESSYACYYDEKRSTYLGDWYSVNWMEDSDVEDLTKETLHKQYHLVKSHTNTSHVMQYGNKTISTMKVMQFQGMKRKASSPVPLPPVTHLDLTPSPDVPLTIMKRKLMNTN

[2] = target: T1, legumain; assay: Kinetics of ACC substrate hydrolysis by legumain; format: biochemical; conditions: for kcat/Km: hydrolysis by legumain
[3] = target: T2, autoactivated recombinant human legumain (Homo sapiens, UniProt Q99538); assay: Km of legumain cleavage of Z-Ala-Ala-Asn-AMC; format: biochemical; conditions: 2.5 nM autoactivated rhLeg, substrate 1.565–200 nM, legumain assay buffer pH 5.8, 30°C
T2 sequence (Q99538 18-323 limits assumed): T1 sequence (Q99538 18-323 limits assumed)

[4] = target: T3, recombinant auto-activated legumain (46 kDa) (Homo sapiens, UniProt Q99538); assay: Probe binding to recombinant enzyme; conditions: probe 10 nM, enzyme 50 nM, pH 5.8 and pH 7.2
T3 sequence (Q99538 18-323 limits assumed): T1 sequence (Q99538 18-323 limits assumed)

[5] = target: T4, prolegumain (56 kDa) (Homo sapiens, UniProt Q99538); assay: Probe binding to prolegumain; conditions: immunoblotting
T4 sequence (Q99538 18-433): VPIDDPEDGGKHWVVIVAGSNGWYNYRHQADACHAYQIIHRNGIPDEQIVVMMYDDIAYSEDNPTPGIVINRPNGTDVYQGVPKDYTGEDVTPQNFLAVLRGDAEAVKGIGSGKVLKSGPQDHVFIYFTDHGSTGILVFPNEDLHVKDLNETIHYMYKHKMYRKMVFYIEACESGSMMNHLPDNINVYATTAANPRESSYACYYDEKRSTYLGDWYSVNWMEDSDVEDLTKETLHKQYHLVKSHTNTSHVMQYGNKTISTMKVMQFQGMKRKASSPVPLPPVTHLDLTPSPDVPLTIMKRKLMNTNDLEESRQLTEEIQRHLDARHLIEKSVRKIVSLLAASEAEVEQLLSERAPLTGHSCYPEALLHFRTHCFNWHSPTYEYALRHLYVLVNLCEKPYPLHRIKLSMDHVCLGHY

[6] = target: T5, caspase-3 (Homo sapiens, UniProt P42574); assay: Probe labelling in lysates of caspase-8/caspase-3 cotransfected M38L cells; format: cell-based; conditions: probe 1 μM, 30 min at 30°C, pH 5.8 or 7.4, immunoblotting
T5 sequence (P42574 29-175 limits assumed): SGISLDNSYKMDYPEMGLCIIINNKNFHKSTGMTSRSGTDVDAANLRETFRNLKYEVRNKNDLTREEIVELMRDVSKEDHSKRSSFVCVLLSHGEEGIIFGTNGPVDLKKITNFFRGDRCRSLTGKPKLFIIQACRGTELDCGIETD
T5 sequence (P42574 176-277 limits assumed): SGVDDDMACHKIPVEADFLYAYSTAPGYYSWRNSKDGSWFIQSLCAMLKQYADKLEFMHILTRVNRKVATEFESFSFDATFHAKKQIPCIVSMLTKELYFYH

[7] = target: T5, caspase-3; assay: Probe binding in cytochrome c/dATP-activated FreeStyle 293-F cytosolic extract; conditions: probe 0–1 μM, pH 5.8 and 7.2, 5 or 30 min at 30°C, immunoblotting
[8] = target: T1, legumain; assay: Direct probe binding and inhibition of legumain in M38L cell lysate; format: biochemical; conditions: M38L lysate 3.5 μg total protein, probe 0–10 μM, pH 5.8, 30 min at 30°C
[9] = target: T2, autoactivated recombinant human legumain; assay: Inhibition rate constants
[10] = target: T1, legumain; assay: Probe labelling in lysates of caspase-8/caspase-3 cotransfected M38L cells; format: cell-based; conditions: for probe labelling of legumain: probe 1 μM, 30 min at 30°C, pH 5.8 or 7.4, immunoblotting
[11] = system: legumain over-expressing M38L cells; conditions: time-course 0–24 h, immunoblotting

Ac-D-Tyr-Tic-Thr-Asn-ACC
optimal pH for legumain activity [1]: 5.8

Ac-[dY][Tic]TD-{ACC}
optimal pH for legumain activity [1]: 4.5

Cbz-Ala-Ala-Asn-{ACC}
kcat/Km [2]: 36100 s^−1M^−1 | times faster cleaved than its P1-Asp analog ([2]; ratio of kcat/Km, Z-AAN-ACC versus Z-AAD-ACC): ~ 22

Cbz-Ala-Ala-Asn-{AMC}
Km [3]: 25.7 µM

Cbz-Ala-Ala-Asp-{ACC}
kcat/Km [2]: 1600 M⁻¹ s⁻¹

biotin-6-ahx-D-Tyr-Tic-Ser-Asp-AOMK [MP-L01] [listing 1 of 2 here]
binding to recombinant auto-activated legumain [4]: bound by MP-L01 at pH 5.8 and not at pH 7.2 | binding to cellular, secreted or recombinant prolegumain (56 kDa) [5]: did not bind | probe labelling of caspase-3 [6]: could not detect such activity | binding to active caspase-3 [7]: only weakly bound | potency relative to either methylated probes (MP-L02 or -L03) [8]: approximately 100 fold | inhibition rate constant (kobs/I) relative to the two methylated probes (MP-L02 and -L03) ([9]; 2.5 nM enzyme, Z-Ala-Ala-Asn-AMC substrate, pH 5.8, 30°C): approximately 100 fold | pH dependence of legumain binding ([10]; lysates of M38L cells, pH 5.8 versus 7.4): only detected at pH 5.8 and not at 7.4 | probe labelling of legumain [10]: only binds legumain

biotin-6-ahx-D-Tyr-Tic-Ser-Asp-AOMK [MP-L01] [listing 2 of 2 here]
incubation time for maximal detection of probe in cells [11]: 8 to 24 h

biotin-6-ahx-DEVD-AOMK [reference compound]
probe labelling of caspase-3 [6]: labels both legumain and caspase-3 | binding to active caspase-3 [7]: strongly bound | inhibition of recombinant legumain (kobs/I), lower efficiency than MP-L01 [9]: 20 fold | probe labelling of legumain [10]: labels both legumain and caspase-3
